According to patent publication US11975051B1, “Therapeutic peptides and uses thereof” (priority 2022, dated 2024):
“Also recorded” adds a separate entry of the source. Like-named read-outs stand apart in the source and are kept apart here. Where a SMILES comes first, the peptide text is derived from it. [ ]: non-standard residue; d: D form.

Key:
A-375 melanoma cells = assay: Erastin-induced ferroptotic cell death, viability; type: cell-based; conditions: washed
Method: (§1) Melanoma cell lines A-375, A-375 non-target, and A-375 (Prdx6 KO) cells were pre-incubated with TVALA™, washed, and treated with Erastin. Following treatment, the cells were evaluated for viability. […] When the cells were pre-treated with TVALA™, washed, and incubated with TVALA™ followed by treatment with Erastin, the cells were protected against Erastin-induced cell death. When A-375 non target cells or A-375 knock out cells were used there was no effect of pre-treatment followed by TVALA™ treatment as expected (data not shown).

A-375 (Prdx6 KO) cells = assay: Erastin-induced ferroptotic cell death, viability; type: cell-based; conditions: pre-treatment followed by TVALA treatment; data not shown
Method: as §1

A-375 non-target cells = assay: Erastin-induced ferroptotic cell death, viability; type: cell-based; conditions: pre-treatment followed by TVALA treatment; data not shown
Method: as §1

[1] = test system: ALS patient derived adipose stem cells (ASCs); assay: Ionomycin-stressed ALS patient derived adipose stem cells, rescue by test compound (SeaHorse); type: cell-based, human
Method: Adipose stem cells (“ASCs”) derived from fat tissue harvested from an ALS patient were glycolytic showing increased proliferation and lipid accumulation in culture. An in vitro model of mitochondrial dysfunction was initiated with ALS patient derived ASCs grown in growth media. After cells were confluent, the growth media was treated with chemical stressors, such as ionomycin. Ionomycin induces cell death, apoptosis, peroxide formation, extracellular ATP, and peroxynitrites that are related to mitochondrial dysfunction. The media was exchanged and replaced with basic DMEM with 4 mM pyruvate and no additional growth factors. Test compounds were added in an effort to rescue the ionomycin treated cells. After recovery, 6 hours, the cells were measured for viability, apoptosis, peroxides, and peroxynitrites by SeaHorse analysis. The ASC patient derived cells are a good model to investigate dysregulated mitochondrial dysfunction in disease, these effects are not apparent in all ALS patient derived iPSC fibroblast cells (data not shown).

[2] = In vitro comparisons of Elamipretide triacetate and TVALA; conditions: data not shown
Method: TVALA™ may be steroid sparing in diseases that involve innate immunity and autoimmune components that are traditionally treated with steroids. For example, age-related macular degeneration is treated with steroid anti-inflammatory agents. TVALA™ is used as an adjunct to traditional therapies, decreasing or eliminating the need for steroids. Another example is for renal dialysis patients, for which TVALA™ is used as adjunctive or as a replacement to anti-inflammatory therapies. Elamipretide Triacetate is a small, mitochondrially-targeted d-tetrapeptide that is not entirely different from TVALA™, as both have two basic residues (Arg and Lys) and both have a d-Arg. Elamipretide triacetate appears to reduce the production of the toxic reactive oxygen species and stabilize cardiolipin to moderate mitochondrial disease.

Mouse plasma stability = type: in vitro ADME; conditions: read-out: Mouse Plasma Stability t½
[3] = test system: SOD1^G93A mouse model of ALS; assay: 6-week efficacy testing of TVALA in drinking water in the SOD1^G93A mouse model of ALS; type: in vivo
Method: A 6-week efficacy testing of test article, TVALA™, in daily drinking water, in the SOD1^G93A mouse model of ALS, with neurological scoring, neuroinflammation and axonopathy outcome measures was conducted by orally dosing with 3 mg/kg or 10 mg/kg. In phrenic nerves the axons numbers are not affected at this age, however axons start to atrophy, in femoral nerves, the mice lose axons and the remaining ones are atrophied.

[4] = Pharmacokinetics in dog (PO); conditions: in vivo, read-out: % F (PO)
Dog microsomal stability = type: in vitro ADME; conditions: dog microsomes
[5] = Mouse (liver) microsomal stability; type: in vitro ADME; conditions: for half-life: mouse, liver microsomes
[6] = Pharmacokinetics in rat (IV, SC, PO); conditions: in vivo
ALS patient-derived ASCs = assay: Stressed ALS patient-derived ASCs treated with peptides, SeaHorse analytics (Example 6); type: cell-based, human
Description: ALS patient-derived ASCs showing hypermetabolism and lipid sequestration were stressed and treated with peptides (shown below, column 2) and effect of the peptide measured with SeaHorse analytics.

Rat microsomal stability = type: in vitro ADME; conditions: rat microsomes
[7] = Pharmacokinetics in mice dosed IV, SC and PO; type: in vivo, mouse; conditions: for half-life / bioavailability / AUC(0-inf) / Cmax: mouse, in vivo, mice

SMILES: CC(C)[C@@H](NC(=O)[C@H](N)Cc1ccc(O)cc1)C(=O)N[C@H](CC(=O)O)C(=O)N[C@H](CCCCN)C(=O)N[C@H](CCCNC(=N)N)C(=O)O [TVALA™, H-(D-Tyr)-(D-Val)-(D-Asp)-(D-Lys)-(D-Arg)-OH] (H-[dY][dV][dD][dK][dR]-OH)
- rescue against Erastin-induced cell death (viability) (A-375 melanoma cells; pre-incubated with peptide, treated with Erastin): did not rescue
- protection against Erastin-induced cell death (viability) (A-375 melanoma cells; pre-treated, incubated with peptide, followed by Erastin): protected
- effect on Erastin-induced cell death (A-375 (Prdx6 KO) cells): no effect
- effect on Erastin-induced cell death (A-375 non-target cells): no effect
- comparison with TP-5 in ALS patient derived cells [1]: superior to TP-5
- VEGFR2 expression ([1]; ALS patient derived cells): normalizes
- peroxides ([1]; ALS-ASC cells in vitro): reduces
- dysregulated mitochondrial energy metabolism ([1]; in vitro): rescues
- extracellular ATP (eATP) ([1]; in vitro cultured ASCs from an ALS patient): decreased
- immunomodulation compared with Elamipretide triacetate [2]: superior at immunomodulation
- target receptors compared with Elamipretide triacetate [2]: more target receptors
- half-life (Mouse plasma stability): > 120 min
- neuroprotection on the phrenic and femoral motor axon sizes ([3]; 3 mg/kg dose): very discrete neuroprotection
- effect on the neuroinflammatory marker GFAP (spinal cord) ([3]; 3 mg/kg orally compared with 10 mg/kg orally): more significant effects than 10 mg/kg orally
- Femoral motor axon size ([3]; 3 mg/kg orally, SOD1^G93A hemizygous mice, vs vehicle/controls): axons of slightly larger size; also recorded: slightly larger femoral motor axons than vehicle treated mice
- Phrenic nerve cross-section area (phrenic axon size) ([3]; 10 mg/kg orally, SOD1^G93A hemizygous mice, vs vehicle/control): smallest axons; also recorded: smaller phrenic axons than vehicle treated mice
- brain inflammation ([3]; oral administration, data not shown): not impacted
- bioavailability [4]: 4.9%
- half-life (Dog microsomal stability): > 60 min
- stability in mouse liver microsomes, half-life ([5]; mouse liver microsomes, listed as SEQ ID NO:1): greater than 120 minutes
- half-life ([5]; mouse liver microsomes, read-out: stability in mouse liver microsomes, half-life): > 120 min
- half-life ([5]; mouse microsomes, read-out: Mouse Microsomal Stability t½): > 60 min
- bioavailability ([6]; PO, read-out: % F (PO)): 6.7%
- bioavailability ([6]; SC, read-out: % F (SC)): 79.2%
- effect of the peptide measured with SeaHorse analytics (ALS patient-derived ASCs): superior to the other compounds
- half-life (Rat microsomal stability): > 60 min
- half-life ([7]; IV, read-out: IV t½, mice): 6.22 min
- bioavailability ([7]; PO, read-out: PO % F, mice): 30%
- AUC(0-inf) ([7]; PO, read-out: PO AUCinf): 2400 ng·h/mL
- Cmax ([7]; PO, read-out: PO Cmax): 5290 ng/mL
- half-life ([7]; PO, read-out: PO t½, mice): 7.36 min
- bioavailability ([7]; SC, read-out: SC % F, mice): 52%
- AUC(0-inf) ([7]; SC, read-out: SC AUCinf): 355 ng·h/mL
- Cmax ([7]; SC, read-out: SC Cmax): 674 ng/mL
- half-life ([7]; SC, read-out: SC t½, mice): 11.9 min
- expected impact of the oral drug on the central nervous system ([7]; oral, based on in vivo testing (Table 4)): 5%
